Consider one compound from patent US5919464A, “Treatment of aberrant cellular states with biomodulators” (University of New Mexico, priority 1993, dated 1999).

“Also recorded” adds a separate entry of the source.

For one assay, the system named is B16F10 cells. As to conditions: Sw in drinking water (3 μg/ml) for 24 hours; cited from earlier work.
The subject of a further assay is canine glioma (CG) cells. Nature of the assay: NMR T-2* linewidth of canine glioma cells. The format is cell-based. An excerpt: These measurements correlate with the status of the cell surface oligosaccharide display. When the GFE decreases, as in cellular senescence, the linewidth measurements decrease, indicating an increased frequency of motion of unfrozen water on the surface. […] Additional data which supports this phenomenological connection between linewidth changes and the functional surface organization include; t-butanol extraction results in uniform decreases in the linewidth; biomodulator treatment of PDL-35 IMR-90s prevents the linewidth changes observed with the senescent populations; and the correlation between the cell surface organization changes and the linewidth data. […] The cells used for all these experiments are between passage 30 and passage 75.
In the growth transformed population we use the term unregulated to distinguish the models. In this case the linewidth for the CG controls are much higher than the IMR-90 values and the re-regulation results in a lowering of these values, approaching the data for the IMR-90s.
The cell surface oligosaccharide display was assessed by methods developed previously. In brief, cells from a sub-culturing were aliquotted into 96 well trays at 5×10^5 cells per ml, 100 μL aliquots. After 16 hours of culture the cells were washed, fixed, and blocked with 0.1% BSA/PBS. Optimal lectin concentrations (5 μg/ml)were used to give 80 to 90% saturation of the available sites. Three carbohydrate ligands at 10 μg concentrations in triplicate or quadruplicate were then used to prepare competition curves for the lectin binding. The Bound over Free (B/F) ratio was calculated and the Ligand microprocessor program was used to determine the optimal fit of the data to a polynomial generated model. The Gibb's Free Energy (GFE) was calculated from the Scatchard data on the competition assay by the following equation: GFE=-RT ln Kequil. The proton NMR linewidth measurements were conducted as described previously.

Another assay concerns solid tumor models. As to conditions: in words; cited from earlier work.
The subject of the next assay is α-mannosidase II. As to conditions: in words; cited from earlier work.

With `O[C@H]1[C@H]2[C@H](O)CCCN2C[C@H]1O` [Swainsonine, swainsonine], the “stimulation of CTL” value in the assay with B16F10 cells is on record as “no stimulation of CTL”. The “T-2* linewidth” value in the assay with canine glioma (CG) cells (233 K, four weeks of treatment, mean ± SD) is recorded as 300 ± 8. Further, in the assay on canine glioma (CG) cells (after one treatment / one week, in words, listed as Sw), the “linewidth change versus controls” value is listed as “significant (P>0.01]) decreases in linewidth; also recorded: significantly (P>0.01) different from those of the untreated controls”. The “linewidth after treatment withdrawal versus control” value in the assay on canine glioma (CG) cells (four weeks treatment, one week withdrawal, in words) was “still significantly different from control values”. Also, the “growth of other solid tumors” value with solid tumor models is listed as “delay growth in several other solid tumor models”. Also, the “α-mannosidase II” value with α-mannosidase II is “inhibition of α-mannosidase II”.
